Measurements taken from patent US20260034094A1, “COMPOSITIONS AND METHODS FOR INDUCING FERROPTOSIS” (Kojin Therapeutics, Inc., priority 2022, published 2026).

Key:
[1] = tested on: cancer cells; assay: Cell line profiling with a ferroptosis-inducing agent with and without a rescue agent (CellTiter-Glo); assay type: cell-based, human; conditions: for fractional viability of cancer cells with fer-1 co-treatment: +1.5 μM fer-1
Method: Cell viability assays are performed by seeding 1,000 cells per well (30 μl volume) in opaque white 384-well plates (Corning). Cells are allowed to adhere for 24 h, after which they are exposed to compounds for 72 hours. DMSO stock solutions of compounds are added to cells using a CyBio Well Vario liquid dispenser (Analytik Jena AG). Cellular ATP levels are measured using CellTiter-Glo (Promega) as a surrogate for viability. Rescue assays are performed using rescue agents-ferrostatin-1 (fer-1, 1.5 μM), liproxstatin-1 (lip-1, 1 μM), deferoxamine (DFO, 50 μM), and other ferroptosis inhibitors added to cells at the time of addition to assay plates. Dose-response curves for BSO and RSL3 are shown in FIG. 4 with and without anti-ferroptosis rescue agent treatment (indicated as no treatment or +1.5 μM fer-1).

[2] = tested on: solid tumor animal model; assay: Microdosing tumors with ferroptosis-inducing agents (implantable drug delivery system, cleaved caspase-3 / H&E staining); assay type: in vivo, C57BL6/J mice; conditions: for tumor response (cleaved caspase-3 staining: cell death, white blood cell recruitment): local sustained administration, 1-10 μM at the tumor site, 24 hours
Method: For the allograft study, cancer cell line-derived tumor cells were injected into the flanks of male C57BL6/J mice. Assays were initiated when the tumor diameter was approximately 6-7 mm.
Microdose drug delivery was performed for the assay described herein. The compounds in Table 22 were packed into device reservoirs using a tapered metal needle. Reservoirs were loaded for initial release of liproxstatin-1 (where included) followed by a 4-6 h delayed release of ferroptosis inducers. Devices were prepared for dose administration into mouse tumors. Devices delivered the ferroptosis inducing agent for 24-72 hours in the tissue. The tumor was then excised, and the tissue was snap frozen with liquid nitrogen. Tissue was sectioned using a standard cryotome, and tissue slices of 20 μm in thickness were collected from each reservoir for analysis by immunoassays, transcriptomics, and metabolomic assays.
A drug delivery system was applied to a: solid tumor animal model. Animals were administered (1) L-BSO or (2) L-BSO+liproxstatin-1 (lip-1) as a ferroptosis-rescue agent. Drugs were loaded into an implantable drug delivery system to achieve concentrations of 1-10 μM for both BSO+lip-1 at the tumor site. After 24 hours, tumors were removed and stained for cleaved caspase-3 to indicate cell death in the tumor (FIG. 2A). […] Therefore, ferroptosis can be induced by both local and systemic administration of BSO.
A drug delivery system was applied to a: solid tumor animal model. Animals were administered (1) ML-210 or (2) ML-210+liproxstatin-1 (lip-1), as a ferroptosis rescue agent. Drugs were loaded into an implantable drug delivery system to achieve concentrations of 1-10 μM for both ML-210 and ML-210+liproxstatin-1 (lip-1) at the tumor site. After 24 hours, tumors were removed and stained for cleaved caspase-3.
To achieve therapeutic doses of RSL3 in vivo, a drug delivery system was applied to a: solid tumor animal model. Animals were administered (1) RSL3 or (2) RSL3+liproxstatin (lip-1) as a ferroptosis rescue agent. Drugs were loaded into an implantable drug delivery system to achieve concentrations of 1-10 μM for both RSL-3 and RSL3 and lip-1 co-administration at the tumor site. After 24 hours of sustained administration, tumors were removed and stained for cleaved caspase-3 (FIG. 5A). Dashed lines indicate region of drug exposure.

[3] = tested on: RKN cells; assay: RKN cell profiling assay (cell viability, CellTiter-Glo); assay type: cell-based; conditions: cell viability, read-out: Cell Killing EC50
Method in brief: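 Cells seeded at 1,000/well in F-12 with 10% FBS, left to adhere 24 h, then compound-treated for 96 h at 0.5% final DMSO. Viability by CellTiter-Glo luminescence; EC50 from four-parameter logistic fit. Ferroptosis rescue runs included 1.5 μM ferrostatin-1 added at seeding.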

[4] = molecular target: human recombinant GCL (Homo sapiens (Human), UniProt P48506); assay: GCL enzyme profiling assay (ADP-Glo luminescence); assay type: biochemical; conditions: human recombinant GCL, ADP-Glo; read-out: GCL IC50
human recombinant GCL, sequence (P48506 whole entry): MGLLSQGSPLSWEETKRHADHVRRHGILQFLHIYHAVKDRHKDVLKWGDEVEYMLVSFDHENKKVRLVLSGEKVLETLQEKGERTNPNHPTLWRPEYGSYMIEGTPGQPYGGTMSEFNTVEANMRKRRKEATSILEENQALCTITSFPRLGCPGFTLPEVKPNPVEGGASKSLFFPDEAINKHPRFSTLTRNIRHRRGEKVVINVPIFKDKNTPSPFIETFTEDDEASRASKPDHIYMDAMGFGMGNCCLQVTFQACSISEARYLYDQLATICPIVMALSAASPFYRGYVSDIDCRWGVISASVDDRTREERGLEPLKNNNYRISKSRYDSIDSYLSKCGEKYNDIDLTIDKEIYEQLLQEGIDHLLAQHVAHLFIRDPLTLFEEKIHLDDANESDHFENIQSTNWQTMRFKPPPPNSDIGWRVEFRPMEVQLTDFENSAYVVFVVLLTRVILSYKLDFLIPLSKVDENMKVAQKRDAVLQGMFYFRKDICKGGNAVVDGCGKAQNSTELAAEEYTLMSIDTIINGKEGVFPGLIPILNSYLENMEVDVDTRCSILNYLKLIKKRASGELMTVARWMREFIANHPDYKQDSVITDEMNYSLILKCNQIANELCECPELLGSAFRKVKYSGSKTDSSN
Method in brief: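 ADP-Glo luminescence readout; 5 nM enzyme preincubated 1 h at 22 °C with 0.6 mM ATP, then started with 1 mM glutamate and 1.2 mM α-aminobutyrate, stopped after 2 h. Buffer: HEPES pH 7.5, MgCl2, DTT, BSA, 0.2% F-127, 1% DMSO. IC50 from four-parameter logistic fit.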

SMILES	fractional viability of cancer cells with fer-1 co-treatment [1]	tumor response (cleaved caspase-3 staining: cell death, white blood cell recruitment) [2]	EC50 [3] [µM]	IC50 [4] [µM]	other results
CCCCS(=N)(=O)CC[C@H](N)C(=O)O (stereo partly drawn) [BSO, buthionine sulfoximine]	not observed	recruitment of white blood cells to the tumor indicating immune cell recruitment and cell death at the tumor site			fractional viability of tumor ([2]; compared with BSO+fer-1 treated sections of the tumor): significant reductions in fractional viability
Cc1onc(C(=O)N2CCN(C(c3ccc(Cl)cc3)c3ccc(Cl)cc3)CC2)c1[N+](=O)[O-] [ML-210]		recruitment of white blood cells to the tumor indicating immune cell recruitment and cell death at the tumor site			
COC(=O)c1ccc([C@H]2c3[nH]c4ccccc4c3C[C@H](C(=O)OC)N2C(=O)CCl)cc1 [RSL3, (1S,3R)-RSL3]	reduction in the fractional viability of cancer cells	White blood cell recruitment and cell death were prominent			ferroptosis induction ([1]; dose-response, with and without 1.5 μM fer-1): robust inducer of ferroptosis
CCOC(=O)c1ccc(NC2CCCCC2)c(N)c1 [Ferrostatin-1, ferrostatin-1]					rescue from cell death ([1]; RSL3 and BSO treated tumors in vivo, 1.5 μM fer-1): prevents cell death
CC(=O)N(c1ccc(C(O)(CC[S@SP3](=N)(=O)CCC(N)C(=O)O)C(F)(F)F)cc1)c1nccs1 (stereo not drawn) [compound 504]			≥ 1000	≤ 20	
N=S(=O)(CC[C@H](N)C(=O)O)CCC(O)(c1ccc(-c2ccc(C(F)(F)F)cc2Cl)cc1)C(F)(F)F (stereo partly drawn) [Compound 441]			< 1000	20 to 2000	
